From patent US10689367B2, “Triazole pyridyl compounds as agonists of the APJ receptor” (AMGEN INC., priority 2016, dated 2020)

What follows are molecules tested against human APJ receptor (Homo sapiens (Human), UniProt P35414) (assay: [35S]GTPγS binding assay on membranes from CHO cells stably expressing human APJ receptor). Conditions: membranes of CHO cells stably expressing human APJ receptor, read-out: Activity hAPJ SPA EC50 IP.
Type: biochemical
How it was run: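 [35S]GTPγS binding measured on membranes from CHO cells stably expressing FLAG-tagged human APJ, with GDP, MgCl2 and NaCl levels optimized beforehand. Incubation 90 min at RT, imager read-out; EC50 from non-linear regression, averaged over several independent experiments.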

human APJ receptor, sequence (P35414 whole entry): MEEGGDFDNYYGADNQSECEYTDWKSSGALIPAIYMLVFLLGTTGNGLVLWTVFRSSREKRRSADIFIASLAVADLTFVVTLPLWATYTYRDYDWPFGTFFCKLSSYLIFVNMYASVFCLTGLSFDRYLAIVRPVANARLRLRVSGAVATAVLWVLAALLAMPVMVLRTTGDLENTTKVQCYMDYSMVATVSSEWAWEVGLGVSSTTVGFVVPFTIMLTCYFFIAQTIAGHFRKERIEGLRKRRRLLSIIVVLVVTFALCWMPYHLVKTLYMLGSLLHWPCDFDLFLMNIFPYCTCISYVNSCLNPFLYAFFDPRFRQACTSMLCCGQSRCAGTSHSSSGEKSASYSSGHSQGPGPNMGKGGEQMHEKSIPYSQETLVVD

SMILES	EC50
CC[C@@H](c1c(C)noc1C)n1c(NS(=O)(=O)[C@@H](C)[C@H](C)c2ncc(Cl)cn2)nnc1-c1cccc(OC)n1 (single isomer, unassigned) [Example 224.0, (2S,3R)-3-(5-chloro-2-pyrimidinyl)-N-(4-((1S)-1-(3,5-dimethyl-1,2-oxazol-4-yl)propyl)-5-(6-methoxy-2-pyridinyl)-4H-1,2,4-triazol-3-yl)-2-butanesulfonamide or (2S,3R)-3-(5-chloro-2-pyrimidinyl)-N-(4-((1R)-1-(3,5-dimethyl-1,2-oxazol-4-yl)propyl)-5-(6-methoxy-2-pyridinyl)-4H-1,2,4-triazol-3-yl)-2-butanesulfonamide]	13 nM
COc1cccc(-c2nnc(NS(=O)(=O)[C@@H](C)[C@H](OC)c3ncc(Cl)cn3)n2[C@H]2C[C@H](OC)C2)n1 [Example 181.0, (1R,2S)-1-(5-chloro-2-pyrimidinyl)-1-methoxy-N-(4-(trans-3-methoxycyclobutyl)-5-(6-methoxy-2-pyridinyl)-4H-1,2,4-triazol-3-yl)-2-propanesulfonamide]	190 nM
COc1cccc(-c2nnc(NS(=O)(=O)[C@@H](C)[C@H](C)c3ncc(Cl)cn3)n2[C@H](C)c2cnn(C)c2)n1 (racemic) [Example 297.0, (2S,3R)-3-(5-chloropyrimidin-2-yl)-N-(5-(6-methoxypyridin-2-yl)-4-((R)-1-(1-methyl-1H-pyrazol-4-yl)ethyl)-4H-1,2,4-triazol-3-yl)butane-2-sulfonamide or (2S,3R)-3-(5-chloropyrimidin-2-yl)-N-(5-(6-methoxypyridin-2-yl)-4-((S)-1-(1-methyl-1H-pyrazol-4-yl)ethyl)-4H-1,2,4-triazol-3-yl)butane-2-sulfonamide]	4.3 nM
COC[C@H](C)n1c(NS(=O)(=O)[C@@H](C)[C@H](OC)c2ncc(Cl)cn2)nnc1-c1cccc(OC)n1 [Example 48.0]	1.3 nM
COc1cccc(-c2nnc(NS(=O)(=O)[C@@H](C)[C@H](C)c3ncc(Cl)cn3)n2[C@@H](C)c2ncc(C)o2)n1 (single isomer, unassigned) [Example 257.0, (2S,3R)-3-(5-chloro-2-pyrimidinyl)-N-(5-(6-methoxy-2-pyridinyl)-4-((1S)-1-(5-methyl-1,3-oxazol-2-yl)ethyl)-4H-1,2,4-triazol-3-yl)-2-butanesulfonamide or (2S,3R)-3-(5-chloro-2-pyrimidinyl)-N-(5-(6-methoxy-2-pyridinyl)-4-((1R)-1-(5-methyl-1,3-oxazol-2-yl)ethyl)-4H-1,2,4-triazol-3-yl)-2-butanesulfonamide]	16 nM
COc1cccc(-c2nnc(NS(=O)(=O)[C@@H](C)[C@@H](OC(C)C)c3ncc(Cl)cn3)n2C2CC2)n1 [Example 70.0]	0.6 nM
COc1cccc(-c2nnc(NS(=O)(=O)[C@@H](C)[C@H](OC)c3ncc(Cl)cn3)n2[C@H]2CCCC[C@H]2C)n1 (stereo in doubt) [Example 75.0]	3 nM
COc1cccc(-c2nnc(NS(=O)(=O)[C@@H](C)[C@H](C)c3ncc(Cl)cn3)n2[C@@H](C)c2ncc(C)o2)n1 (single isomer, unassigned) [Example 258.0, (2S,3R)-3-(5-chloro-2-pyrimidinyl)-N-(5-(6-methoxy-2-pyridinyl)-4-((1S)-1-(5-methyl-1,3-oxazol-2-yl)ethyl)-4H-1,2,4-triazol-3-yl)-2-butanesulfonamide or (2S,3R)-3-(5-chloro-2-pyrimidinyl)-N-(5-(6-methoxy-2-pyridinyl)-4-((1R)-1-(5-methyl-1,3-oxazol-2-yl)ethyl)-4H-1,2,4-triazol-3-yl)-2-butanesulfonamide]	0.88 nM
COc1cccc(-c2nnc(NS(=O)(=O)[C@@H](C)[C@@H](OC(C)C)c3ncc(C)cn3)n2[C@@H](C)c2c(C)noc2C)n1 (racemic) [Example 315.0]	57 nM
COc1cccc(-c2nnc(NS(=O)(=O)[C@@H](C)[C@H](OC)c3ncc(Cl)cn3)n2[C@@H](C)c2ncc(C)o2)n1 (single isomer, unassigned) [Example 255.0, (1R,2S)-1-(5-chloro-2-pyrimidinyl)-1-methoxy-N-(5-(6-methoxy-2-pyridinyl)-4-((1S)-1-(5-methyl-1,3-oxazol-2-yl)ethyl)-4H-1,2,4-triazol-3-yl)-2-propanesulfonamide or (1R,2S)-1-(5-chloro-2-pyrimidinyl)-1-methoxy-N-(5-(6-methoxy-2-pyridinyl)-4-((1R)-1-(5-methyl-1,3-oxazol-2-yl)ethyl)-4H-1,2,4-triazol-3-yl)-2-propanesulfonamide]	7.5 nM
COc1cccc(-c2nnc(NS(=O)(=O)[C@@H](C)[C@H](OC)c3ncc(Cl)cn3)n2[C@@H](C)c2ccno2)n1 (single isomer, unassigned) [Example 213.0, (1R,2S)-1-(5-chloro-2-pyrimidinyl)-1-methoxy-N-(5-(6-methoxy-2-pyridinyl)-4-((1R)-1-(1,2-oxazol-5-yl)ethyl)-4H-1,2,4-triazol-3-yl)-2-propanesulfonamide or (1R,2S)-1-(5-chloro-2-pyrimidinyl)-1-methoxy-N-(5-(6-methoxy-2-pyridinyl)-4-((1S)-1-(1,2-oxazol-5-yl)ethyl)-4H-1,2,4-triazol-3-yl)-2-propanesulfonamide]	0.66 nM
CC[C@@H](c1conc1C)n1c(NS(=O)(=O)[C@@H](C)[C@H](C)c2ncc(Cl)cn2)nnc1-c1cccc(OC)n1 (mixture of isomers) [Example 227.0, (2S,3R)-3-(5-chloro-2-pyrimidinyl)-N-(5-(6-methoxy-2-pyridinyl)-4-((1R)-1-(3-methyl-1,2-oxazol-4-yl)propyl)-4H-1,2,4-triazol-3-yl)-2-butanesulfonamide and (2S,3R)-3-(5-chloro-2-pyrimidinyl)-N-(5-(6-methoxy-2-pyridinyl)-4-((1S)-1-(3-methyl-1,2-oxazol-4-yl)propyl)-4H-1,2,4-triazol-3-yl)-2-butanesulfonamide]	4.5 nM
COc1cccc(-c2nnc(NS(=O)(=O)[C@@H](C)[C@H](OC)c3ncc(Cl)cn3)n2C2CC2)n1 [Example 69.0]	0.89 nM
COc1cccc(-c2nnc(NS(=O)(=O)[C@@H](C)[C@H](OC)c3cnc(C)cn3)n2Cc2ccno2)n1 [Example 206.0, (1R,2S)-1-methoxy-N-(5-(6-methoxy-2-pyridinyl)-4-(1,2-oxazol-5-ylmethyl)-4H-1,2,4-triazol-3-yl)-1-(5-methyl-2-pyrazinyl)-2-propanesulfonamide]	210 nM
COc1cccc(-c2nnc(NS(=O)(=O)[C@@H](C)[C@H](OC)c3ncc(Cl)cn3)n2Cc2ccon2)n1 [Example 76.0]	3.3 nM
COc1cccc(-c2nnc(NS(=O)(=O)[C@@H](C)[C@@H](OC(C)C)c3ncc(Cl)cn3)n2C(C)C)n1 [Example 177.0, (1S,2S)-1-(5-chloro-2-pyrimidinyl)-N-(5-(6-methoxy-2-pyridinyl)-4-(2-propanyl)-4H-1,2,4-triazol-3-yl)-1-(2-propanyloxy)-2-propanesulfonamide]	8.9 nM
COc1cccc(-c2nnc(NS(=O)(=O)[C@@H](C)[C@@H](OC(C)C)c3ncc(C)cn3)n2[C@@H](C)c2ccon2)n1 (single isomer, unassigned) [Example 269.0, (1S,2S)-1-isopropoxy-N-(4-((R)-1-(isoxazol-3-yl)ethyl)-5-(6-methoxypyridin-2-yl)-4H-1,2,4-triazol-3-yl)-1-(5-methylpyrimidin-2-yl)propane-2-sulfonamide or (1S,2S)-1-isopropoxy-N-(4-((S)-1-(isoxazol-3-yl)ethyl)-5-(6-methoxypyridin-2-yl)-4H-1,2,4-triazol-3-yl)-1-(5-methylpyrimidin-2-yl)propane-2-sulfonamide]	17 nM
COc1cccc(-c2nnc(NS(=O)(=O)[C@@H](C)[C@H](OC)c3ncc(Cl)cn3)n2CC2CCOCC2)n1 [Example 302.0, (1R,2S)-1-(5-chloropyrimidin-2-yl)-1-methoxy-N-(5-(6-methoxypyridin-2-yl)-4-((tetrahydro-2H-pyran-4-yl)methyl)-4H-1,2,4-triazol-3-yl)propane-2-sulfonamide]	53 nM
CC[C@H]([C@@H]1CCCCO1)n1c(NS(=O)(=O)[C@@H](C)[C@H](OC)c2ncc(Cl)cn2)nnc1-c1cccc(OC)n1 (single isomer, unassigned) [Example 327.0]	0.11 nM
COc1cccc(-c2nnc(NS(=O)(=O)[C@@H](C)[C@H](C)c3ncc(Cl)cn3)n2[C@H](C)c2csnn2)n1 (single isomer, unassigned) [Example 295.0, (2S,3R)-N-(4-((R)-1-(1,2,3-thiadiazol-4-yl)ethyl)-5-(6-methoxypyridin-2-yl)-4H-1,2,4-triazol-3-yl)-3-(5-chloropyrimidin-2-yl)butane-2-sulfonamide or (2S,3R)-N-(4-((S)-1-(1,2,3-thiadiazol-4-yl)ethyl)-5-(6-methoxypyridin-2-yl)-4H-1,2,4-triazol-3-yl)-3-(5-chloropyrimidin-2-yl)butane-2-sulfonamide]	6.4 nM
COCCn1c(NS(=O)(=O)[C@@H](C)[C@H](OC)c2ncc(Cl)cn2)nnc1-c1cccc(OC)n1 [Example 3.0, (1R,2S)-1-(5-chloro-2-pyrimidinyl)-1-methoxy-N-(4-(2-methoxyethyl)-5-(6-methoxy-2-pyridinyl)-4H-1,2,4-triazol-3-yl)-2-propanesulfonamide]	2.8 nM
COCC(COC)n1c(NS(=O)(=O)[C@@H](C)[C@H](OC)c2ncc(Cl)cn2)nnc1-c1cncc(C)c1 [Example 15.0, (1R,2S)-1-(5-chloro-2-pyrimidinyl)-N-(4-(1,3-dimethoxy-2-propanyl)-5-(5-methyl-3-pyridinyl)-4H-1,2,4-triazol-3-yl)-1-methoxy-2-propanesulfonamiide]	30 nM
COc1cccc(-c2nnc(NS(=O)(=O)[C@@H](C)[C@@H](OC(C)C)c3ncc(C)cn3)n2[C@@H](C)[C@H]2CCCO2)n1 (single isomer, unassigned) [Example 274.0]	2.2 nM
COCC1(n2c(NS(=O)(=O)[C@@H](C)[C@@H](OC(C)C)c3ncc(C)cn3)nnc2-c2cccnc2)CC1 [Example 62.0]	27 nM
